Reference: the supplement of paper PMC10307832

Legend:
Experiment in all cases: relative viability (nuclei count vs DMSO), 5 days (fraction); higher = more cells survive
Sorafenib + Palbociclib = compound: CNC(=O)c1cc(Oc2ccc(NC(=O)Nc3ccc(Cl)c(C(F)(F)F)c3)cc2)ccn1 [Sorafenib] + CC(=O)c1c(C)c2cnc(Nc3ccc(N4CCNCC4)cn3)nc2n(C2CCCC2)c1=O [Palbociclib] (partner 0.5 µM)
How it was run: (§1)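 One day after seeding in 1536-well plates, lung cancer cell lines were dosed by pin tool. Dosing was either single-drug or a fixed anchor-drug dose plus five library-drug doses (not always all listed) in √10 steps. After 5 days, nuclei were stained in one fix-and-stain step and counted on 4× images, and relative viability is the nuclei count of treated wells over that of vehicle wells, given as the median of duplicate plates.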

Sorafenib + Tozasertib = compound: CNC(=O)c1cc(Oc2ccc(NC(=O)Nc3ccc(Cl)c(C(F)(F)F)c3)cc2)ccn1 [Sorafenib] + Cc1cc(Nc2cc(N3CCN(C)CC3)nc(Sc3ccc(NC(=O)C4CC4)cc3)n2)n[nH]1 [Tozasertib] (partner 0.1 µM)
How it was run: as §1

Sorafenib + Linsitinib = compound: CNC(=O)c1cc(Oc2ccc(NC(=O)Nc3ccc(Cl)c(C(F)(F)F)c3)cc2)ccn1 [Sorafenib] + C[C@]1(O)C[C@@H](c2nc(-c3ccc4ccc(-c5ccccc5)nc4c3)c3c(N)nccn32)C1 [Linsitinib] (partner 1 µM)
How it was run: as §1

Sorafenib + Dasatinib = compound: CNC(=O)c1cc(Oc2ccc(NC(=O)Nc3ccc(Cl)c(C(F)(F)F)c3)cc2)ccn1 [Sorafenib] + Cc1nc(Nc2ncc(C(=O)Nc3c(C)cccc3Cl)s2)cc(N2CCN(CCO)CC2)n1 [Dasatinib] (partner 0.075 µM)
How it was run: as §1

Sorafenib + Decitabine = compound: CNC(=O)c1cc(Oc2ccc(NC(=O)Nc3ccc(Cl)c(C(F)(F)F)c3)cc2)ccn1 [Sorafenib] + Nc1ncn([C@H]2C[C@H](O)[C@@H](CO)O2)c(=O)n1 [Decitabine] (partner 2 µM)
How it was run: as §1

Cell Line: 201T
- relative viability (Sorafenib + Palbociclib; first compound 0.08 µM): 0.34
- relative viability (Sorafenib + Palbociclib; first compound 0.253 µM): 0.343
- relative viability (Sorafenib + Palbociclib; first compound 2.53 µM): 0.36
- relative viability (Sorafenib + Palbociclib; first compound 8 µM): 0.357
- relative viability (Sorafenib + Tozasertib; first compound 0.08 µM): 0.964
- relative viability (Sorafenib + Tozasertib; first compound 0.253 µM): 0.925
- relative viability (Sorafenib + Tozasertib; first compound 2.53 µM): 0.955
- relative viability (Sorafenib + Tozasertib; first compound 8 µM): 0.827
- relative viability (Sorafenib + Linsitinib; first compound 0.08 µM): 1
- relative viability (Sorafenib + Linsitinib; first compound 0.253 µM): 0.985
- relative viability (Sorafenib + Linsitinib; first compound 2.53 µM): 1.02
- relative viability (Sorafenib + Linsitinib; first compound 8 µM): 1.06
- relative viability (Sorafenib + Dasatinib; first compound 0.08 µM): 0.584
- relative viability (Sorafenib + Dasatinib; first compound 0.253 µM): 0.578
- relative viability (Sorafenib + Dasatinib; first compound 2.53 µM): 0.596
- relative viability (Sorafenib + Dasatinib; first compound 8 µM): 0.458
- relative viability (Sorafenib + Decitabine; first compound 0.08 µM): 0.854
- relative viability (Sorafenib + Decitabine; first compound 0.253 µM): 0.816
- relative viability (Sorafenib + Decitabine; first compound 2.53 µM): 0.867
- relative viability (Sorafenib + Decitabine; first compound 8 µM): 0.879

Cell Line: A-427
- relative viability (Sorafenib + Palbociclib; first compound 0.08 µM): 0.531
- relative viability (Sorafenib + Palbociclib; first compound 0.253 µM): 0.553
- relative viability (Sorafenib + Palbociclib; first compound 2.53 µM): 0.589
- relative viability (Sorafenib + Palbociclib; first compound 8 µM): 0.474
- relative viability (Sorafenib + Tozasertib; first compound 0.08 µM): 0.21
- relative viability (Sorafenib + Tozasertib; first compound 0.253 µM): 0.261
- relative viability (Sorafenib + Tozasertib; first compound 2.53 µM): 0.217
- relative viability (Sorafenib + Tozasertib; first compound 8 µM): 0.132
- relative viability (Sorafenib + Linsitinib; first compound 0.08 µM): 1.07
- relative viability (Sorafenib + Linsitinib; first compound 0.253 µM): 1.06
- relative viability (Sorafenib + Linsitinib; first compound 2.53 µM): 1.03
- relative viability (Sorafenib + Linsitinib; first compound 8 µM): 0.987
- relative viability (Sorafenib + Dasatinib; first compound 0.08 µM): 0.75
- relative viability (Sorafenib + Dasatinib; first compound 0.253 µM): 0.671
- relative viability (Sorafenib + Dasatinib; first compound 8 µM): 0.31
- relative viability (Sorafenib + Decitabine; first compound 0.08 µM): 0.598
- relative viability (Sorafenib + Decitabine; first compound 0.253 µM): 0.528
- relative viability (Sorafenib + Decitabine; first compound 8 µM): 0.532

Cell Line: ABC-1
- relative viability (Sorafenib + Palbociclib; first compound 0.08 µM): 0.712
- relative viability (Sorafenib + Palbociclib; first compound 0.253 µM): 0.682
- relative viability (Sorafenib + Palbociclib; first compound 2.53 µM): 0.854
- relative viability (Sorafenib + Palbociclib; first compound 8 µM): 0.725
- relative viability (Sorafenib + Tozasertib; first compound 0.08 µM): 0.227
- relative viability (Sorafenib + Tozasertib; first compound 0.253 µM): 0.219
- relative viability (Sorafenib + Tozasertib; first compound 2.53 µM): 0.214
- relative viability (Sorafenib + Tozasertib; first compound 8 µM): 0.185
- relative viability (Sorafenib + Linsitinib; first compound 0.08 µM): 0.837
- relative viability (Sorafenib + Linsitinib; first compound 0.253 µM): 0.893
- relative viability (Sorafenib + Linsitinib; first compound 2.53 µM): 0.918
- relative viability (Sorafenib + Linsitinib; first compound 8 µM): 0.956
- relative viability (Sorafenib + Dasatinib; first compound 0.08 µM): 0.625
- relative viability (Sorafenib + Dasatinib; first compound 0.253 µM): 0.493
- relative viability (Sorafenib + Dasatinib; first compound 2.53 µM): 0.619
- relative viability (Sorafenib + Dasatinib; first compound 8 µM): 0.351
- relative viability (Sorafenib + Decitabine; first compound 0.08 µM): 1.23
- relative viability (Sorafenib + Decitabine; first compound 2.53 µM): 0.823
- relative viability (Sorafenib + Decitabine; first compound 8 µM): 1

Cell Line: BEN
- relative viability (Sorafenib + Palbociclib; first compound 0.08 µM): 0.48
- relative viability (Sorafenib + Palbociclib; first compound 0.253 µM): 0.513
- relative viability (Sorafenib + Palbociclib; first compound 2.53 µM): 0.413
- relative viability (Sorafenib + Palbociclib; first compound 8 µM): 0.516
- relative viability (Sorafenib + Tozasertib; first compound 0.08 µM): 0.519
- relative viability (Sorafenib + Tozasertib; first compound 0.253 µM): 0.423
- relative viability (Sorafenib + Tozasertib; first compound 2.53 µM): 0.536
- relative viability (Sorafenib + Tozasertib; first compound 8 µM): 0.482
- relative viability (Sorafenib + Linsitinib; first compound 0.08 µM): 1.02
- relative viability (Sorafenib + Linsitinib; first compound 0.253 µM): 0.914
- relative viability (Sorafenib + Linsitinib; first compound 2.53 µM): 0.886
- relative viability (Sorafenib + Linsitinib; first compound 8 µM): 0.693
- relative viability (Sorafenib + Dasatinib; first compound 0.08 µM): 0.342
- relative viability (Sorafenib + Dasatinib; first compound 0.253 µM): 0.255
- relative viability (Sorafenib + Dasatinib; first compound 2.53 µM): 0.381
- relative viability (Sorafenib + Dasatinib; first compound 8 µM): 0.309
- relative viability (Sorafenib + Decitabine; first compound 0.08 µM): 0.746
- relative viability (Sorafenib + Decitabine; first compound 0.253 µM): 0.726
- relative viability (Sorafenib + Decitabine; first compound 8 µM): 0.461

Cell Line: CAL-12T
- relative viability (Sorafenib + Palbociclib; first compound 0.08 µM): 0.512
- relative viability (Sorafenib + Palbociclib; first compound 0.253 µM): 0.396
- relative viability (Sorafenib + Palbociclib; first compound 2.53 µM): 0.489
- relative viability (Sorafenib + Palbociclib; first compound 8 µM): 0.247
- relative viability (Sorafenib + Tozasertib; first compound 0.08 µM): 0.354
- relative viability (Sorafenib + Tozasertib; first compound 0.253 µM): 0.284
- relative viability (Sorafenib + Tozasertib; first compound 2.53 µM): 0.271
- relative viability (Sorafenib + Tozasertib; first compound 8 µM): 0.219
- relative viability (Sorafenib + Linsitinib; first compound 0.08 µM): 0.889
- relative viability (Sorafenib + Linsitinib; first compound 2.53 µM): 0.834
- relative viability (Sorafenib + Linsitinib; first compound 8 µM): 0.656
- relative viability (Sorafenib + Dasatinib; first compound 0.08 µM): 0.658
- relative viability (Sorafenib + Dasatinib; first compound 2.53 µM): 0.415
- relative viability (Sorafenib + Dasatinib; first compound 8 µM): 0.114

Cell Line: COR-L23
- relative viability (Sorafenib + Palbociclib; first compound 0.08 µM): 0.301
- relative viability (Sorafenib + Palbociclib; first compound 0.253 µM): 0.288
- relative viability (Sorafenib + Palbociclib; first compound 2.53 µM): 0.319
- relative viability (Sorafenib + Palbociclib; first compound 8 µM): 0.264
- relative viability (Sorafenib + Tozasertib; first compound 0.08 µM): 0.24
- relative viability (Sorafenib + Tozasertib; first compound 0.253 µM): 0.185
- relative viability (Sorafenib + Tozasertib; first compound 2.53 µM): 0.113
- relative viability (Sorafenib + Tozasertib; first compound 8 µM): 0.079
- relative viability (Sorafenib + Linsitinib; first compound 0.08 µM): 1.05
- relative viability (Sorafenib + Linsitinib; first compound 0.253 µM): 0.814
- relative viability (Sorafenib + Linsitinib; first compound 2.53 µM): 0.866
- relative viability (Sorafenib + Linsitinib; first compound 8 µM): 0.531
- relative viability (Sorafenib + Dasatinib; first compound 0.08 µM): 0.55
- relative viability (Sorafenib + Dasatinib; first compound 0.253 µM): 0.495
- relative viability (Sorafenib + Dasatinib; first compound 2.53 µM): 0.514
- relative viability (Sorafenib + Dasatinib; first compound 8 µM): 0.235
- relative viability (Sorafenib + Decitabine; first compound 0.08 µM): 0.417
- relative viability (Sorafenib + Decitabine; first compound 0.253 µM): 0.374
- relative viability (Sorafenib + Decitabine; first compound 2.53 µM): 0.501
- relative viability (Sorafenib + Decitabine; first compound 8 µM): 0.332

Cell Line: COR-L 105
- relative viability (Sorafenib + Palbociclib; first compound 0.08 µM): 0.452
- relative viability (Sorafenib + Palbociclib; first compound 0.253 µM): 0.365
- relative viability (Sorafenib + Palbociclib; first compound 2.53 µM): 0.411
- relative viability (Sorafenib + Palbociclib; first compound 8 µM): 0.384
- relative viability (Sorafenib + Tozasertib; first compound 0.08 µM): 0.405
- relative viability (Sorafenib + Tozasertib; first compound 0.253 µM): 0.435
- relative viability (Sorafenib + Tozasertib; first compound 2.53 µM): 0.322
- relative viability (Sorafenib + Tozasertib; first compound 8 µM): 0.411
- relative viability (Sorafenib + Linsitinib; first compound 0.08 µM): 0.853
- relative viability (Sorafenib + Linsitinib; first compound 0.253 µM): 0.926
- relative viability (Sorafenib + Linsitinib; first compound 2.53 µM): 0.906
- relative viability (Sorafenib + Linsitinib; first compound 8 µM): 0.985
- relative viability (Sorafenib + Dasatinib; first compound 0.08 µM): 0.475
- relative viability (Sorafenib + Dasatinib; first compound 0.253 µM): 0.31
- relative viability (Sorafenib + Dasatinib; first compound 8 µM): 0.356
- relative viability (Sorafenib + Decitabine; first compound 0.08 µM): 0.733
- relative viability (Sorafenib + Decitabine; first compound 0.253 µM): 0.617
- relative viability (Sorafenib + Decitabine; first compound 2.53 µM): 0.695
- relative viability (Sorafenib + Decitabine; first compound 8 µM): 0.573

Cell Line: ChaGo-K-1
- relative viability (Sorafenib + Palbociclib; first compound 0.08 µM): 0.908
- relative viability (Sorafenib + Palbociclib; first compound 0.253 µM): 0.894
- relative viability (Sorafenib + Palbociclib; first compound 8 µM): 0.679
- relative viability (Sorafenib + Tozasertib; first compound 0.08 µM): 0.229
- relative viability (Sorafenib + Tozasertib; first compound 0.253 µM): 0.235
- relative viability (Sorafenib + Tozasertib; first compound 2.53 µM): 0.215
- relative viability (Sorafenib + Tozasertib; first compound 8 µM): 0.192
- relative viability (Sorafenib + Dasatinib; first compound 0.08 µM): 0.649
- relative viability (Sorafenib + Dasatinib; first compound 0.253 µM): 0.505
- relative viability (Sorafenib + Dasatinib; first compound 2.53 µM): 0.577
- relative viability (Sorafenib + Dasatinib; first compound 8 µM): 0.455
- relative viability (Sorafenib + Decitabine; first compound 0.08 µM): 0.532
- relative viability (Sorafenib + Decitabine; first compound 0.253 µM): 0.537
- relative viability (Sorafenib + Decitabine; first compound 2.53 µM): 0.51
- relative viability (Sorafenib + Decitabine; first compound 8 µM): 0.471

Cell Line: EKVX
- relative viability (Sorafenib + Palbociclib; first compound 0.08 µM): 0.425
- relative viability (Sorafenib + Palbociclib; first compound 0.253 µM): 0.43
- relative viability (Sorafenib + Palbociclib; first compound 2.53 µM): 0.432
- relative viability (Sorafenib + Palbociclib; first compound 8 µM): 0.321
- relative viability (Sorafenib + Tozasertib; first compound 0.08 µM): 0.382
- relative viability (Sorafenib + Tozasertib; first compound 0.253 µM): 0.419
- relative viability (Sorafenib + Tozasertib; first compound 2.53 µM): 0.467
- relative viability (Sorafenib + Tozasertib; first compound 8 µM): 0.212
- relative viability (Sorafenib + Linsitinib; first compound 0.08 µM): 1.12
- relative viability (Sorafenib + Linsitinib; first compound 0.253 µM): 0.983
- relative viability (Sorafenib + Linsitinib; first compound 2.53 µM): 0.989
- relative viability (Sorafenib + Linsitinib; first compound 8 µM): 0.912
- relative viability (Sorafenib + Dasatinib; first compound 0.08 µM): 0.628
- relative viability (Sorafenib + Dasatinib; first compound 0.253 µM): 0.449
- relative viability (Sorafenib + Dasatinib; first compound 2.53 µM): 0.376
- relative viability (Sorafenib + Dasatinib; first compound 8 µM): 0.349
- relative viability (Sorafenib + Decitabine; first compound 0.08 µM): 0.339
- relative viability (Sorafenib + Decitabine; first compound 0.253 µM): 0.362
- relative viability (Sorafenib + Decitabine; first compound 2.53 µM): 0.378
- relative viability (Sorafenib + Decitabine; first compound 8 µM): 0.305
